Data on four compounds can be found in patent US6765010B2, “Compositions and methods for enhancing analgesic potency of tramadol and attenuating its adverse side effects” (Pain Therapeutics, Inc., priority 1999, dated 2004).

“Also recorded” adds a separate entry of the source. Where two headings read alike, the source gives them in different places.

The test system of test [1] is dorsal root ganglion (DRG) neurons. In kind it is cell-based, mouse.
The subject of test [2] is mice. As to the kind of experiment: Warm-water (55° C.) tail-flick assay, antinociception. Type of test: in vivo, mouse.
Test [3] deals with mice. In words: Acute physical dependence assay: naloxone-precipitated withdrawal jumping. The settings on record: for effect on naloxone-precipitated withdrawal jumping: co-treatment 4 hours with 100 mg/kg morphine s.c. plus low dose antagonist. Type of test: in vivo, mouse.
Test [4] deals with mice. Conditions: morphine 20-50 mg/kg s.c. twice daily 4 days alone or + naltrexone 10 μg/kg s.c.; n=30.
For test [5], the system named is mice. Conditions: at 30 minutes; n=10.
Test [6] deals with excitatory opioid receptors on DRG neurons. Type of test: cell-based, mouse.
The test system of another test is DRG neurons. In kind it is cell-based, mouse.
The test system of the next test is human volunteers. Conditions: yohimbine 0.1 mg/kg IV; 100 mg tramadol orally; cited from earlier work.

On to `CN1CC[C@]23c4c5ccc(O)c4O[C@H]2[C@@H](O)C=C[C@H]3[C@H]1C5` [morphine], for which, in test [1], the APD during application entry is “prolonged” and the “alteration of the APD of DRG neurons” value was “prolong the APD”. Further, in the test on mice [2] (100 mg/kg morphine alone or + 10 μg/kg naltrexone, cutoff value), the peak tail-flick latencies is 10 s. Further, the “mice showing naloxone-precipitated jumping” value in the test with mice [3] (100 mg/kg morphine s.c. alone or + naltrexone 10 μg/kg, naloxone 10 mg/kg i.p. 3-4 h later, n=30) is “About 67%”. For the same compound, the “mice showing naloxone-precipitated jumping” value in the test with mice [4] is on record as “About 60%”. In addition, the “antinociception after acute 1 mg/kg morphine, 1 day after drug withdrawal” value with mice [5] is recorded as 3%±2%.

Turning to `C=C1CC[C@@]2(O)[C@H]3Cc4ccc(O)c5c4[C@@]2(CCN3CC2CC2)[C@H]1O5` [nalmefene], the “enhancement of morphine antinociceptive potency compared with naltrexone” value in the test on mice [2] (1 ng/kg nalmefene) is “as effective as 10 ng/kg naltrexone”. For the same compound, in the test with mice [2] (3 mg/kg morphine + 1-100 ng/kg nalmefene i.p., 10 mice), the “effect on morphine's antinociceptive potency” value was “enhances morphine's antinociceptive potency”. For the same compound, the “attenuation of morphine dependence liability compared with naltrexone” value with mice [3] (1 μg/kg nalmefene, n=10) is on record as “may even be more effective than naltrexone”. In the test on mice [3], the “effect on naloxone-precipitated withdrawal jumping” value is listed as “attenuates naloxone-precipitated withdrawal-jumping”.

`O=C1CC[C@@]2(O)[C@H]3Cc4ccc(O)c5c4[C@@]2(CCN3CC2CC2)[C@H]1O5` [naltrexone]: in test [6], the “blockade of excitatory APD prolongation by bimodally-acting opioid agonists” value was “remarkably effective in blocking excitatory APD-prolonging effects”, the “effect on morphine's APD effects” value is on record as “blocks both inhibitory as well as excitatory effects of morphine” and the “selective antagonism of excitatory APD-prolonging effects at excitatory opioid receptors” value was “act selectively as antagonists; also recorded: selectively blocked”. In the test with DRG neurons, the “excitatory APD prolongation (supersensitivity) after chronic co-treatment” value is “did not evoke the usual excitatory APD prolongation” and the “tolerance to inhibitory effects of opioids after chronic co-treatment” value is reported as “no evidence of tolerance”. In addition, in the test on mice [2] (10 ng/kg i.p.), the “analgesic effects of antagonist alone” value is listed as “did not elicit analgesic effects”. Also, in the test with mice [2] (0.1 μg/kg), the “analgesic effects of antagonist alone” value is recorded as “did not elicit analgesic effects”. Moreover, the “effect on naloxone-precipitated withdrawal jumping” value in the test on mice [3] was “attenuates naloxone-precipitated withdrawal-jumping”.

`COC(=O)[C@@H]1[C@H]2C[C@H]3c4[nH]c5ccccc5c4CCN3C[C@@H]2CC[C@@H]1O` [yohimbine]: in the test with human volunteers, the “reduction of tramadol-induced analgesia” value was at least 89%.
